Measurements: patent US4415558A, “CRF And analogs” (The Salk Institute for Biological Studies, priority 1982, dated 1983)
[ ]: non-standard residue; d: D form. Nle = CCCC[C@H](N)C(=O)O

Experiments:
[1] = tested on: cultured rat pituitary cells; test: Secretion of ACTH and β-endorphin by cultured rat pituitary cells; format: cell-based; conditions: general procedure set forth in Example III; in vitro or in vivo not specified
Description: The synthetic and the natural CRF were examined for their effects on the secretion of ACTH and β-endorphin in vitro and the synthetic CRF was also examined in vivo. The high potency of synthetic and natural CRF to stimulate the secretion of ACTH and β-endorphin by cultured rat pituitary cells was measured. […] The secretory response to maximal (>5 nM) concentrations of CRF is at a plateau level. In vivo doses from 30 ng to 3 μg/Kg of body weight rapidly elevated ACTH and β-endorphin-like (β-END-LI) secretions 5-20 fold.

[2] = Blood pressure in rats (mean carotid blood pressure, urethane-anesthetized rat); format: in vivo; conditions: general procedure set forth in Example III
Description: Plasma levels of ACTH and β-END-LI are elevated for at least 5-20 minutes following the intravenous administration of CRF to nembutal-anesthesized male rats and to quiescent male or female rats with indwelling intravenous cannulae. […] Mean cartoid blood pressure in a urethane-anesthesized rat fell from 87 to 72±2 mm Hg and remained at that level for 30 minutes following an injection equal to 3 μg CRF/Kg body weight; the subsequent administration of an injection equal to 30 μg CRF/Kg body weight lowered mean blood pressure to 42±3 mm Hg for more than 2 hours.

Compound | Stimulation of secretion of ACTH and β-END-LI (in words) [1] | Lowering of blood pressure (in words) [2]
CC[C@H](C)[C@H](NC(=O)[C@@H](NC(=O)[C@H](CC(=O)O)NC(=O)[C@H](CC(C)C)NC(=O)[C@H](CC(C)C)NC(=O)[C@H](CC(C)C)NC(=O)[C@H](CCCNC(=N)N)NC(=O)[C@H](CC(N)=O)NC(=O)[C@H](CC(N)=O)NC(=O)[C@H](C)NC(=O)[C@H](C)NC(=O)[C@H](CCC(N)=O)NC(=O)[C@H](CCC(N)=O)NC(=O)[C@H](CCCCN)NC(=O)CNC(=O)[C@H](CCCCN)NC(=O)[C@H](CCC(=O)O)NC(=O)[C@H](CCC(N)=O)NC(=O)[C@H](CCCCN)NC(=O)[C@H](CCC(=O)O)NC(=O)[C@@H](NC(=O)[C@H](CCC(=O)O)NC(=O)[C@@H](NC(=O)[C@H](CCSC)NC(=O)[C@H](CCCCN)NC(=O)[C@H](CCCNC(=N)N)NC(=O)[C@H](CC(C)C)NC(=O)[C@H](CC(C)C)NC(=O)[C@H](CCC(=O)O)NC(=O)[C@H](CC(C)C)NC(=O)[C@H](CO)NC(=O)[C@H](CC(C)C)NC(=O)[C@H](CC(=O)O)NC(=O)[C@@H](NC(=O)[C@H](CO)NC(=O)[C@@H](NC(=O)[C@@H]1CCCN1C(=O)[C@@H]1CCCN1C(=O)CNC(=O)[C@@H]1CCC(=O)N1)[C@@H](C)CC)[C@@H](C)CC)[C@@H](C)CC)[C@@H](C)CC)[C@@H](C)O)C(N)=O [[Gly^26]-sauvagine] | stimulates the secretion of ACTH and β-END-LI | very significant lowering of blood pressure
H-SQEPPISLDLTFHLLREVLEATKADQLAQQAHTNRKLLDI[Nle]-NH2 [[Ala^21, Thr^33, Nle^41]-CRF] | stimulates the secretion of ACTH and β-END-LI | very significant lowering of blood pressure
CC[C@H](C)[C@H](NC(=O)[C@H](CCC(=O)O)NC(=O)[C@@H](NC(=O)[C@H](CCSC)NC(=O)[C@H](CCCCN)NC(=O)[C@H](CCCNC(=N)N)NC(=O)[C@H](CC(C)C)NC(=O)[C@H](CC(C)C)NC(=O)[C@H](CCC(=O)O)NC(=O)[C@H](CC(C)C)NC(=O)[C@H](CO)NC(=O)[C@H](CC(C)C)NC(=O)[C@H](CC(=O)O)NC(=O)[C@@H](NC(=O)[C@H](CO)NC(=O)[C@@H](NC(=O)[C@@H]1CCCN1C(=O)[C@@H]1CCCN1C(=O)CNC(=O)[C@@H]1CCC(=O)N1)[C@@H](C)CC)[C@@H](C)CC)[C@@H](C)CC)C(=O)N[C@@H](CCC(=O)O)C(=O)N[C@@H](CCCCN)C(=O)N[C@@H](CCC(N)=O)C(=O)N[C@@H](CCC(=O)O)C(=O)N[C@@H](CCCCN)C(=O)N[C@@H](CCC(=O)O)C(=O)N[C@@H](CCCCN)C(=O)N[C@@H](CCC(N)=O)C(=O)N[C@@H](CCC(N)=O)C(=O)N[C@@H](C)C(=O)N[C@@H](C)C(=O)N[C@@H](CC(N)=O)C(=O)N[C@@H](CC(N)=O)C(=O)N[C@@H](CCCNC(=N)N)C(=O)N[C@@H](CC(C)C)C(=O)N[C@@H](CC(C)C)C(=O)N[C@@H](CC(C)C)C(=O)N[C@@H](CC(=O)O)C(=O)N[C@@H](C)C(=O)N[C@@H](C)C(N)=O [[Ala^39, Ala^40]-sauvagine] | stimulates the secretion of ACTH and β-END-LI | very significant lowering of blood pressure
H-SQEPPISIDLSFHLLREVLEMTKADQLAQQAHNNRKLLDIA-NH2 [[Ile^8, Ser^11, Asn^33]-CRF] | stimulates the secretion of ACTH and β-END-LI | very significant lowering of blood pressure
CC[C@H](C)[C@H](NC(=O)[C@H](CC(=O)O)NC(=O)[C@H](CC(C)C)NC(=O)[C@H](CC(C)C)NC(=O)[C@H](CCCCN)NC(=O)[C@H](CCCNC(=N)N)NC(=O)[C@H](CC(N)=O)NC(=O)[C@H](CO)NC(=O)[C@H](Cc1c[nH]cn1)NC(=O)[C@H](C)NC(=O)[C@H](CCC(N)=O)NC(=O)[C@H](CCC(N)=O)NC(=O)[C@H](C)NC(=O)[C@H](CC(C)C)NC(=O)[C@H](CCC(N)=O)NC(=O)[C@H](CC(=O)O)NC(=O)[C@H](C)NC(=O)[C@H](CCCCN)NC(=O)[C@@H](NC(=O)[C@H](CCSC)NC(=O)[C@H](CCC(=O)O)NC(=O)[C@H](CC(C)C)NC(=O)[C@@H](NC(=O)[C@H](CCC(=O)O)NC(=O)[C@H](CCCNC(=N)N)NC(=O)[C@H](CC(C)C)NC(=O)[C@H](CC(C)C)NC(=O)[C@H](Cc1c[nH]cn1)NC(=O)[C@H](Cc1ccccc1)NC(=O)[C@@H](NC(=O)[C@H](CC(C)C)NC(=O)[C@H](CC(=O)O)NC(=O)[C@H](CC(C)C)NC(=O)[C@H](CO)NC(=O)[C@@H](NC(=O)[C@@H]1CCCN1C(=O)[C@@H]1CCCN1C(=O)[C@H](CCC(=O)O)NC(=O)[C@H](CCC(N)=O)NC(=O)[C@H](C)NC(C)=O)[C@@H](C)CC)[C@@H](C)O)C(C)C)[C@@H](C)O)C(=O)N[C@@H](C)C(N)=O [[Acetyl-Ala^1]-CRF] | stimulates the secretion of ACTH and β-END-LI | very significant lowering of blood pressure
H-SQEPPISLDLTFHLLREVIEMTKAEQLAQQAHSNRKLLDIA-NH2 [[Ile^19, Glu^25]-CRF] | stimulates the secretion of ACTH and β-END-LI | very significant lowering of blood pressure
CC[C@H](C)[C@H](NC(=O)[C@H](CC(=O)O)NC(=O)[C@H](CC(C)C)NC(=O)[C@H](CC(C)C)NC(=O)[C@H](CCCCN)NC(=O)[C@H](CCCNC(=N)N)NC(=O)[C@H](CC(N)=O)NC(=O)[C@H](CO)NC(=O)[C@H](Cc1c[nH]cn1)NC(=O)[C@H](C)NC(=O)[C@H](CCC(N)=O)NC(=O)[C@H](CCC(N)=O)NC(=O)[C@H](C)NC(=O)[C@H](CC(C)C)NC(=O)[C@H](CCC(N)=O)NC(=O)[C@H](CC(=O)O)NC(=O)[C@H](C)NC(=O)[C@H](CCCCN)NC(=O)[C@@H](NC(=O)[C@H](CCSC)NC(=O)[C@H](CCC(=O)O)NC(=O)[C@H](CC(C)C)NC(=O)[C@@H](NC(=O)[C@H](CCC(=O)O)NC(=O)[C@H](CCCNC(=N)N)NC(=O)[C@H](CC(C)C)NC(=O)[C@H](CC(C)C)NC(=O)[C@H](Cc1c[nH]cn1)NC(=O)[C@H](Cc1ccccc1)NC(=O)[C@@H](NC(=O)[C@H](CC(C)C)NC(=O)[C@H](CC(=O)O)NC(=O)[C@H](CC(C)C)NC(=O)[C@H](CO)NC(=O)[C@@H](NC(=O)[C@@H]1CCCN1C(=O)[C@@H]1CCCN1)[C@@H](C)CC)[C@@H](C)O)C(C)C)[C@@H](C)O)C(=O)N[C@@H](C)C(N)=O [[des Ser^1 -Gln^2 -Glu^3]-CRF] | stimulates the secretion of ACTH and β-END-LI | very significant lowering of blood pressure
CC[C@H](C)[C@H](NC(=O)[C@H](CC(=O)O)NC(=O)[C@H](CC(C)C)NC(=O)[C@H](CC(C)C)NC(=O)[C@H](CCCCN)NC(=O)[C@H](CCCNC(=N)N)NC(=O)[C@H](CC(N)=O)NC(=O)[C@H](CO)NC(=O)[C@H](Cc1c[nH]cn1)NC(=O)[C@H](C)NC(=O)[C@H](CCC(N)=O)NC(=O)[C@H](CCC(N)=O)NC(=O)[C@H](C)NC(=O)[C@H](CC(C)C)NC(=O)[C@H](CCC(N)=O)NC(=O)[C@H](CC(=O)O)NC(=O)[C@H](C)NC(=O)[C@H](CCCCN)NC(=O)[C@@H](NC(=O)[C@H](CCSC)NC(=O)[C@H](CCC(=O)O)NC(=O)[C@H](CC(C)C)NC(=O)[C@@H](NC(=O)[C@H](CCC(=O)O)NC(=O)[C@H](CCCNC(=N)N)NC(=O)[C@H](CC(C)C)NC(=O)[C@H](CC(C)C)NC(=O)[C@H](Cc1c[nH]cn1)NC(=O)[C@H](Cc1ccccc1)NC(=O)[C@@H](NC(=O)[C@H](CC(C)C)NC(=O)[C@H](CC(=O)O)NC(=O)[C@H](CC(C)C)NC(=O)[C@H](CO)NC(=O)[C@@H](NC(=O)[C@@H]1CCCN1C(=O)[C@@H]1CCCN1C(C)=O)[C@@H](C)CC)[C@@H](C)O)C(C)C)[C@@H](C)O)C(=O)N[C@@H](C)C(N)=O [[Acetyl-Pro^4]-CRF] | stimulates the secretion of ACTH and β-END-LI | very significant lowering of blood pressure to a greater extent than CRF
CC[C@H](C)[C@H](NC(=O)[C@@H](NC(=O)[C@H](CC(=O)O)NC(=O)[C@H](CC(C)C)NC(=O)[C@H](CC(C)C)NC(=O)[C@H](CC(C)C)NC(=O)[C@H](CCCNC(=N)N)NC(=O)[C@H](CC(N)=O)NC(=O)[C@H](CC(N)=O)NC(=O)[C@H](C)NC(=O)[C@H](C)NC(=O)[C@H](CCC(N)=O)NC(=O)[C@H](CCC(N)=O)NC(=O)[C@H](CCCCN)NC(=O)[C@H](CCC(=O)O)NC(=O)[C@H](CCCCN)NC(=O)[C@H](CCC(=O)O)NC(=O)[C@H](CCC(N)=O)NC(=O)[C@H](CCCCN)NC(=O)[C@H](CCC(=O)O)NC(=O)[C@@H](NC(=O)[C@H](CCC(=O)O)NC(=O)[C@@H](NC(=O)[C@H](CCSC)NC(=O)[C@H](CCCCN)NC(=O)[C@H](CCCNC(=N)N)NC(=O)[C@H](CC(C)C)NC(=O)[C@H](CC(C)C)NC(=O)[C@H](CCC(=O)O)NC(=O)[C@H](CC(C)C)NC(=O)[C@H](CO)NC(=O)[C@H](CC(C)C)NC(=O)[C@H](CC(=O)O)NC(=O)[C@@H](NC(=O)[C@H](CO)NC(=O)[C@@H](NC(=O)[C@@H]1CCCN1C(=O)[C@@H]1CCCN1)[C@@H](C)CC)[C@@H](C)CC)[C@@H](C)CC)[C@@H](C)CC)[C@@H](C)O)C(N)=O [[des pGlu^1 -Gly^2]-sauvagine] | stimulates the secretion of ACTH and β-END-LI | very significant lowering of blood pressure
H-SQEPPISLDLTFHLLREVLE[Nle]TKADQLAQQAYSNRKLLDIA-NH2 [[Nle^21, Tyr^32]-CRF] | stimulates the secretion of ACTH and β-END-LI | very significant lowering of blood pressure to a greater extent than CRF
